AC50 data for 21 compounds are collected here from ChEMBL document CHEMBL5291721, “A preclinical secondary pharmacology resource illuminates target-adverse drug reaction associations of marketed drugs” (Nat Commun, 2023).

Where a SMILES comes first, the peptide text is derived from it. [ ]: non-standard residue; d: D form. pGlu = O=C1CC[C@@H](C(=O)O)N1; Thz = O=C(O)[C@@H]1CSCN1 Where only a bound is given, the exact number is not on record here.

For assay [1], the target named is T1, Alpha-2B adrenergic receptor (Homo sapiens, UniProt P18089).
T1 sequence (P18089 whole entry): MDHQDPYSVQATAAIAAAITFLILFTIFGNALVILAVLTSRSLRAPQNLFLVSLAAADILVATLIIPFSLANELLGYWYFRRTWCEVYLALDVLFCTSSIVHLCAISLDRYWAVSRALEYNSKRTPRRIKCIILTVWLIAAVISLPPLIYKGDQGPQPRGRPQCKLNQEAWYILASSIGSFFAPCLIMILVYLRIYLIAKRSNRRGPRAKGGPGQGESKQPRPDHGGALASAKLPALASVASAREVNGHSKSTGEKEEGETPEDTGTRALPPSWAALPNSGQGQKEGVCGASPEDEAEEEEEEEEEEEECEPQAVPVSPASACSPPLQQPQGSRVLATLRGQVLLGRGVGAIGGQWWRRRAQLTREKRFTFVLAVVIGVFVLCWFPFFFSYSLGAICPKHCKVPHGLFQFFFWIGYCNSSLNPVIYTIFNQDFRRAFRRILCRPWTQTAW

Assay [2] deals with T2, Muscarinic acetylcholine receptor M1 (Homo sapiens, UniProt P11229).
T2 sequence (P11229 whole entry): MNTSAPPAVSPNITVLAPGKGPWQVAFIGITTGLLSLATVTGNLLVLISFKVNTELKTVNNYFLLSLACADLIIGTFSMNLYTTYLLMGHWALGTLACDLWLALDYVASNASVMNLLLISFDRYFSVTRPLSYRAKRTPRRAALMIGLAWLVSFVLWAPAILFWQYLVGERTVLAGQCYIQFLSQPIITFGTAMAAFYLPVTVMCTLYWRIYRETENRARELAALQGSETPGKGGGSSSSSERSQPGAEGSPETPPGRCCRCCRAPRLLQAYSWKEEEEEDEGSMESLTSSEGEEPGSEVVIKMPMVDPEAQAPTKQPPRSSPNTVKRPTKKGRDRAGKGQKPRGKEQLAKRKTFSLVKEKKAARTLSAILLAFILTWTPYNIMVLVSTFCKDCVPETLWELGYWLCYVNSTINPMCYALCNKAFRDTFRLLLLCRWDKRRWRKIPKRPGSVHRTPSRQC
Type of assay: functional.

Assay [3] concerns the target Muscarinic acetylcholine receptor M3 (Homo sapiens, UniProt P20309).
Another assay has as its target Cannabinoid receptor 1 (Homo sapiens, UniProt P21554). Type of assay: functional, cell-based.
The target in the next assay is Histamine H1 receptor (Homo sapiens, UniProt P35367).
Histamine H1 receptor, sequence (P35367 whole entry): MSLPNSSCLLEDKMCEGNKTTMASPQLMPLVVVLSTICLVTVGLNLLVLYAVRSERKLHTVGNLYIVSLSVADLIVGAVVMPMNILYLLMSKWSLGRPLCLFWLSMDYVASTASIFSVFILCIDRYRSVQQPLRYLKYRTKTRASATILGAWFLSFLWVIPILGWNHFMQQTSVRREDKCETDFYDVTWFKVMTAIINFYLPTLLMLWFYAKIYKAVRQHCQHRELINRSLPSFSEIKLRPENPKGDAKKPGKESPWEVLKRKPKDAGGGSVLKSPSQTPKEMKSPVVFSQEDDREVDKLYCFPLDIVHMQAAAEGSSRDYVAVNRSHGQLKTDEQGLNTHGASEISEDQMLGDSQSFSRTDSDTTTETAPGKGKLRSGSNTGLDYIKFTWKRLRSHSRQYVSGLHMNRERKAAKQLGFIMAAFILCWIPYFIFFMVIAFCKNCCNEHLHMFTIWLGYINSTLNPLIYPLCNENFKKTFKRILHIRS
The target in assay [4] is T3, Mu-type opioid receptor (Homo sapiens, UniProt P35372). Nature of the assay: biochemical. Type of assay: functional.
T3 sequence (P35372 whole entry): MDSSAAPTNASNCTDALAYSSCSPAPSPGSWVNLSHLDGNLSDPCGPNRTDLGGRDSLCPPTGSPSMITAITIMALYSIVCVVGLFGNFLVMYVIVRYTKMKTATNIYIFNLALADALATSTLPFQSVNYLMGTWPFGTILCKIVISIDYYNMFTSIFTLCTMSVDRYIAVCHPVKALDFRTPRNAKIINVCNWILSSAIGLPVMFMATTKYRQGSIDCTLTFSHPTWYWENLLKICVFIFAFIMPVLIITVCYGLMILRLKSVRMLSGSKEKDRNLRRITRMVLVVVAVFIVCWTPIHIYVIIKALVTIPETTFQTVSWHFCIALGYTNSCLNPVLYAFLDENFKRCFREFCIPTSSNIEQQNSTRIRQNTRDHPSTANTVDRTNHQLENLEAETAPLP
The target of assay [5] is T4, Alpha-1A adrenergic receptor (Homo sapiens, UniProt P35348).
T4 sequence (P35348 whole entry): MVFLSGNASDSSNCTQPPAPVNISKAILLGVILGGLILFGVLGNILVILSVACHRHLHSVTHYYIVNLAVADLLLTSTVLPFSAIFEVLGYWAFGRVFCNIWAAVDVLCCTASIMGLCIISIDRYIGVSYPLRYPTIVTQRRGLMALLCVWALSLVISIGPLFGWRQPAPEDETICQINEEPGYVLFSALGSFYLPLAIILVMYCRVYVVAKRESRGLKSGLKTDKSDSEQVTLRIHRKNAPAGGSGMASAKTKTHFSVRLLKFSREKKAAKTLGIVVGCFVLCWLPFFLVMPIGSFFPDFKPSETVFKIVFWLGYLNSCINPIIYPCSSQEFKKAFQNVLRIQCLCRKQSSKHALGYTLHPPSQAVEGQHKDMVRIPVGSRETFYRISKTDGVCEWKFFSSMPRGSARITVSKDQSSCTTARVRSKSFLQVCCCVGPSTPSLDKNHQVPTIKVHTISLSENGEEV
Type of assay: functional, cell-based.

The target of assay [6] is T5, 5-hydroxytryptamine receptor 1A (Homo sapiens, UniProt P08908).
T5 sequence (P08908 whole entry): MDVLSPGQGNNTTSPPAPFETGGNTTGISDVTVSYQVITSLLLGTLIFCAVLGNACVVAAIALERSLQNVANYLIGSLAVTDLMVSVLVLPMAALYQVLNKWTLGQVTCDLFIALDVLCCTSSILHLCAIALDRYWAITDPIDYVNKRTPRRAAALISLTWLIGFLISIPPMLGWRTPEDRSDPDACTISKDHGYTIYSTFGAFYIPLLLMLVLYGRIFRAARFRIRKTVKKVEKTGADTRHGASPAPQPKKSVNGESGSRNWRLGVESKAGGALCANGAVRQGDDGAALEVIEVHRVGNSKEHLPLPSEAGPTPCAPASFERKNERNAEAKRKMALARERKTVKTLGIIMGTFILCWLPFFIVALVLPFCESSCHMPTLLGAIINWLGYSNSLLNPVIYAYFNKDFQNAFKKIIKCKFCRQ
Type of assay: functional, cell-based.

In a further assay the target is Melanocortin receptor 4 (Homo sapiens, UniProt P32245).
Melanocortin receptor 4, sequence (P32245 whole entry): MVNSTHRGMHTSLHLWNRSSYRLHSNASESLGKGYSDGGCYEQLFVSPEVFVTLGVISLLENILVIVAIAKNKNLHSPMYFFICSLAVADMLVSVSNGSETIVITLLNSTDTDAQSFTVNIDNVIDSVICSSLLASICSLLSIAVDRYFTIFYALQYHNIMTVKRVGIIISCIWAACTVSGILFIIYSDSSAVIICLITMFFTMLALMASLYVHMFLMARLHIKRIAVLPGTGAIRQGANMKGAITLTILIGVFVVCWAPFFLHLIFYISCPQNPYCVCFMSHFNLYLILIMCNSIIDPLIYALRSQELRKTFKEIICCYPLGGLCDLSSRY
The target of assay [7] is T4, Alpha-1A adrenergic receptor.
The target of assay [8] is T3, Mu-type opioid receptor.
Also: assay procedure not described here.

Cannabinoid receptor 1, sequence (P21554 whole entry): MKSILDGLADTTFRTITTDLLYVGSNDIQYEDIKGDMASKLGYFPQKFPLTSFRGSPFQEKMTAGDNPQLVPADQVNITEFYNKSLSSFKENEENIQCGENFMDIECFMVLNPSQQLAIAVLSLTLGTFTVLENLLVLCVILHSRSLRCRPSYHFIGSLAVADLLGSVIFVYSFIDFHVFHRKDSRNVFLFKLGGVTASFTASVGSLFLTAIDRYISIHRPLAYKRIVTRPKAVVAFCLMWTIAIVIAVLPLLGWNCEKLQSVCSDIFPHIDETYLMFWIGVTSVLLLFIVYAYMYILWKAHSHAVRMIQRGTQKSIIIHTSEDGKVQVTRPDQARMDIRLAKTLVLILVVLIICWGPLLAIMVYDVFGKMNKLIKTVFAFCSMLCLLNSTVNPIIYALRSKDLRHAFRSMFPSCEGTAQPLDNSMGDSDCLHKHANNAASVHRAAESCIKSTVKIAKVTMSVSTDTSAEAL
Muscarinic acetylcholine receptor M3, sequence (P20309 whole entry): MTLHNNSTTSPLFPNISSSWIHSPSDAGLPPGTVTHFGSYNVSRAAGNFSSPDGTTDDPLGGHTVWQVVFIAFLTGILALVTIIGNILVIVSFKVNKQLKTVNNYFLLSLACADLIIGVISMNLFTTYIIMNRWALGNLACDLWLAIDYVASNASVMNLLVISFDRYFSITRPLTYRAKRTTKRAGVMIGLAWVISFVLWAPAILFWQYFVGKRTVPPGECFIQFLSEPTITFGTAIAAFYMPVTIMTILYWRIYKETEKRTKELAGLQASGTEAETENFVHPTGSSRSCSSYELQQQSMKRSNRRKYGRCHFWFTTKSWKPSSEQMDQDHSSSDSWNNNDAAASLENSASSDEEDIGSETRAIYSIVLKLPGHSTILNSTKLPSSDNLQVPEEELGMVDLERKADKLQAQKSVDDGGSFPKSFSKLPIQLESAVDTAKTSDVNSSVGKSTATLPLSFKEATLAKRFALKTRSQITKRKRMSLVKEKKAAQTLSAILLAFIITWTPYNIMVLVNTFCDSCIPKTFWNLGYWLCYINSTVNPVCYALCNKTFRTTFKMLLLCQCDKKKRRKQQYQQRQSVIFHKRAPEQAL

The term AC50 denotes the concentration giving half of the maximal activity seen. On to `Oc1cc(O)c(Cl)cn1`, for which the AC50 (in [1]; in [2]; in assay [3]; on Cannabinoid receptor 1; at Histamine H1 receptor; at Mu-type opioid receptor [4]) was greater than 30 µM each time. Half-maximal activity in [5] (AC50) was put at 26 µM.

Consider `CCC(NC(C)C)C(O)c1ccc(O)c2[nH]c(=O)ccc12` (stereo unspecified) [PROCATEROL], for which the AC50 (in assay [1]; in assay [2]; in assay [3]; at Cannabinoid receptor 1; on Histamine H1 receptor; on Mu-type opioid receptor [4]) was greater than 30 µM throughout. The compound also displayed an AC50 in assay [5] greater than 30 µM.

For `O=c1c(O)c(-c2ccc(O)c(O)c2)oc2cc(O)cc(O)c12` [QUERCETIN], the AC50 is greater than 10 µM in assay [1]; greater than 10 µM in assay [2]; greater than 30 µM in assay [3]; greater than 10 µM at Histamine H1 receptor; greater than 10 µM in assay [6]; greater than 30 µM at Melanocortin receptor 4.

For the compound `CC/C=C\C/C=C\C/C=C\C/C=C\C/C=C\CCCC(=O)OCC` [ICOSAPENT ETHYL], the AC50 (in [1]; in [2]; in assay [3]; at Cannabinoid receptor 1; at Histamine H1 receptor; in assay [6]) was greater than 30 µM in each case. Further, the AC50 (on Mu-type opioid receptor [4]; in [5]) was greater than 30 µM in each case.

As for `CCCN1CCCC[C@H]1C(=O)Nc1c(C)cccc1C` [ROPIVACAINE], the AC50 (in [1]; in assay [2]; in assay [3]; at Cannabinoid receptor 1; at Histamine H1 receptor; on Mu-type opioid receptor [4]) was greater than 30 µM throughout. The compound further showed an AC50 in [5] greater than 30 µM.

`CCc1cc2c(s1)-n1c(C)nnc1CN=C2c1ccccc1Cl` [ETIZOLAM]: the AC50 (in assay [1]; in [2]; in assay [3]; at Cannabinoid receptor 1; on Histamine H1 receptor; at Mu-type opioid receptor [4]) was greater than 30 µM in each case. The compound also showed an AC50 in assay [5] greater than 30 µM.

`CC(C)(C)NCC(O)c1ccccc1Cl` (stereo unspecified) [TULOBUTEROL]: the AC50 (in [1]; in assay [2]; in assay [3]; on Cannabinoid receptor 1; in assay [6]; at Mu-type opioid receptor [4]) was greater than 30 µM each time. In addition, the AC50 in assay [5] was greater than 30 µM.

`CCCCCCCC(=O)CC[C@@H]1[C@@H](C/C=C\CCCC(=O)OC(C)C)[C@@H](O)C[C@H]1O` [UNOPROSTONE ISOPROPYL]: the AC50 (in [2]; on Histamine H1 receptor) was greater than 30 µM each time.

Consider `CC(C(=O)O)c1ccc2c(c1)CC(=O)c1ccccc1S2` (stereo unspecified) [ZALTOPROFEN], for which the AC50 (in assay [1]; in assay [2]; in assay [3]; on Cannabinoid receptor 1; at Histamine H1 receptor; at Mu-type opioid receptor [4]) was greater than 30 µM throughout. The same compound displayed an AC50 in assay [5] greater than 30 µM.

As for `O=C(O)CCNC(=O)c1ccc(/N=N/c2ccc(O)c(C(=O)O)c2)cc1` [BALSALAZIDE], the AC50 (in [7]; in [6]; at Melanocortin receptor 4; at Mu-type opioid receptor [4]) was greater than 30 µM throughout.

Regarding `Fc1ccc([C@@H]2CCNC[C@H]2COc2ccc3c(c2)OCO3)cc1` [PAROXETINE], the results for the AC50 (in assay [6]; on Melanocortin receptor 4) were greater than 10 µM and greater than 30 µM, respectively.

Consider `Cn1c(=O)c2c(ncn2CCOC(=O)C(C)(C)Oc2ccc(Cl)cc2)n(C)c1=O` [THEOFIBRATE], for which the AC50 (in assay [1]; in [2]; in assay [3]; at Cannabinoid receptor 1; on Histamine H1 receptor; in [6]) was greater than 30 µM each time. For the same compound, the AC50 (at Mu-type opioid receptor [4]; in [5]) was greater than 30 µM in each case.

For `CC(C)NC[C@H](O)COc1ccc(CC(N)=O)cc1` [ESATENOLOL], the AC50 in assay [7] was greater than 10 µM; in [6], greater than 10 µM; on Melanocortin receptor 4, greater than 30 µM.

For the compound `CCN1CC(CCN2CCOCC2)C(c2ccccc2)(c2ccccc2)C1=O` (stereo unspecified) [DOXAPRAM], the AC50 (at Cannabinoid receptor 1; in assay [6]; on Mu-type opioid receptor [4]; in assay [5]) was greater than 30 µM throughout.

Consider `COc1cc(C(=O)NC2CCCNC2)cc(OC)c1OC` (stereo unspecified) [TROXIPIDE], for which the AC50 (on Cannabinoid receptor 1; at Mu-type opioid receptor [4]; in [5]) was greater than 30 µM in each case.

With `COc1ccc(CN2CCN(C(c3ccc(F)cc3)c3ccc(F)cc3)CC2)c(OC)c1OC` [LOMERIZINE], the half-maximal activity concentration (AC50) in assay [1] is 19 µM; in assay [2], 0.94 µM; in assay [3], greater than 30 µM; at Cannabinoid receptor 1, greater than 30 µM; on Histamine H1 receptor, 4.5 µM; on Mu-type opioid receptor [4], 3.3 µM. The AC50 turned out to be 9.7 µM on Mu-type opioid receptor [8] and 8.2 µM in assay [5].

As for `O=C1CC[C@@H](C(=O)N2CSC[C@H]2C(=O)O)N1` [PIDOTIMOD] ([pGlu]-[Thz]-OH), the AC50 (in assay [1]; in assay [2]; in assay [3]; at Cannabinoid receptor 1; on Histamine H1 receptor; at Mu-type opioid receptor [4]) was greater than 30 µM each time. The compound also displayed an AC50 in assay [5] greater than 30 µM.

Take `OC[C@H]1O[C@@H](Oc2cc(O)cc(/C=C/c3ccc(O)cc3)c2)[C@H](O)[C@@H](O)[C@@H]1O` [PICEID]: the AC50 (in [1]; in [2]; in assay [3]; on Cannabinoid receptor 1; on Histamine H1 receptor; on Mu-type opioid receptor [4]) was greater than 30 µM each time. The AC50 in assay [5] was found to be 19 µM.

For the compound `Oc1ccc(CCNCCCCCCNCCc2ccccc2)cc1O` [DOPEXAMINE], the AC50 was 19 µM in assay [1]; 14 µM in assay [2]; greater than 30 µM in [3]; greater than 30 µM on Cannabinoid receptor 1; 15 µM at Histamine H1 receptor; greater than 30 µM in assay [6]. The figures for the AC50 (at Mu-type opioid receptor [4]; in [5]) were greater than 30 µM and 1.4 µM, respectively.

As for `C=CC[N+]1([C@H]2C[C@H]3[C@@H]4CC[C@H]5C[C@H](O)[C@@H](N6CCOCC6)C[C@]5(C)[C@H]4CC[C@]3(C)[C@H]2OC(C)=O)CCCC1` [ROCURONIUM], the AC50 (in assay [1]; in assay [2]; in assay [3]; on Histamine H1 receptor; in assay [6]; at Melanocortin receptor 4) was greater than 30 µM each time. Besides, the AC50 (at Mu-type opioid receptor [4]; in assay [5]) was greater than 30 µM in each case.

For `Clc1ccc(CCC(Cn2ccnc2)Sc2c(Cl)cccc2Cl)cc1` (stereo unspecified) [BUTOCONAZOLE], the AC50 in assay [1] was 19 µM; in [2], greater than 30 µM; in [3], 21 µM; at Histamine H1 receptor, greater than 30 µM; at Mu-type opioid receptor [4], greater than 30 µM; in [5], greater than 30 µM.
